According to ChEMBL document CHEMBL1201862, “PubChem BioAssay data set” (2004):
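Five compound concentrations were applied to cells in 96-well plates for 48 hours; endpoints were derived by simple linear interpolation of the resulting dose-response curve. The concentration for 50% growth inhibition is given as GI50.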 Active and inactive are the calls of the source. No stated cut-off is given here; in the data, active = GI50 up to about 1.1 µM and inactive = higher.

Assays:
Test in all cases: inhibition of tumour cell growth, NCI panel, 48 h
SN12C = tested on: SN12C
SF-539 = tested on: SF-539
NCI/ADR-RES = tested on: NCI/ADR-RES
IGROV-1 = tested on: IGROV-1
A498 = tested on: A498
COLO 205 = tested on: COLO 205
OVCAR-3 = tested on: OVCAR-3
SK-OV-3 = tested on: SK-OV-3
CAKI-1 = tested on: CAKI-1
NCI-H460 = tested on: NCI-H460
MCF7 = tested on: MCF7
HOP-62 = tested on: HOP-62
LOX IMVI = tested on: LOX IMVI
U-251 = tested on: U-251
MOLT-4 = tested on: MOLT-4
SK-MEL-28 = tested on: SK-MEL-28
SK-MEL-5 = tested on: SK-MEL-5
HCT-116 = tested on: HCT-116
EKVX = tested on: EKVX
CCRF-CEM = tested on: CCRF-CEM

Row | SMILES | GI50 (SN12C) | GI50 (SF-539) | GI50 (NCI/ADR-RES) | GI50 (IGROV-1) | GI50 (A498) | GI50 (COLO 205) | GI50 (OVCAR-3) | GI50 (SK-OV-3) | GI50 (CAKI-1) | GI50 (NCI-H460) | GI50 (MCF7) | GI50 (HOP-62) | GI50 (LOX IMVI) | GI50 (U-251) | GI50 (MOLT-4) | GI50 (SK-MEL-28) | GI50 (SK-MEL-5) | GI50 (HCT-116) | GI50 (EKVX) | GI50 (CCRF-CEM)
1 | COC(=O)CCC(C)C1CCC2C3CCC4CC5CCC4(C)C3(O5)C(Br)C(Br)C12C (stereo unspecified) | > 100 µM (inactive) | 85.1 µM (inactive) | > 100 µM (inactive) | > 100 µM (inactive) | > 100 µM (inactive) | > 100 µM (inactive) | > 100 µM (inactive) | > 100 µM (inactive) | > 100 µM (inactive) | > 100 µM (inactive) | > 100 µM (inactive) | > 100 µM (inactive) | > 100 µM (inactive) | > 100 µM (inactive) | > 100 µM (inactive) | > 100 µM (inactive) | 72.9 µM (inactive) | 78.9 µM (inactive) | > 100 µM (inactive) | 
2 | C1CC2=C(C1)[Se]C(=C1Sc3nsnc3S1)[Se]2 | > 100 µM (inactive) | > 100 µM (inactive) | > 100 µM (inactive) | > 100 µM (inactive) |  | > 100 µM (inactive) | > 100 µM (inactive) | > 100 µM (inactive) | > 100 µM (inactive) | > 100 µM (inactive) | > 100 µM (inactive) | > 100 µM (inactive) | > 100 µM (inactive) | > 100 µM (inactive) | > 100 µM (inactive) | > 100 µM (inactive) | > 100 µM (inactive) | > 100 µM (inactive) | > 100 µM (inactive) | > 100 µM (inactive)
3 | O=C(OCc1ccccc1)C(Cc1ccccc1)N(Cc1ccccc1)Cc1ccccc1 (stereo unspecified) | 53 µM (inactive) | > 100 µM (inactive) |  | > 100 µM (inactive) | > 100 µM (inactive) | > 100 µM (inactive) | 84.7 µM (inactive) | > 100 µM (inactive) | > 100 µM (inactive) | 35.1 µM (inactive) |  | > 100 µM (inactive) |  | 27.7 µM (inactive) | 18.5 µM (inactive) | > 100 µM (inactive) | 5.94 µM (inactive) | 24.1 µM (inactive) | > 100 µM (inactive) | 25.8 µM (inactive)
4 | CCOC(=O)Cn1c(=O)c2cc(C)cc3c(Cl)nc4c(OC)c(OC)cc1c4c32 |  | > 100 µM (inactive) | > 100 µM (inactive) | 71.8 µM (inactive) |  | > 100 µM (inactive) | > 100 µM (inactive) | > 100 µM (inactive) | > 100 µM (inactive) | > 100 µM (inactive) | 72.8 µM (inactive) | > 100 µM (inactive) | > 100 µM (inactive) | > 100 µM (inactive) | > 100 µM (inactive) | > 100 µM (inactive) | > 100 µM (inactive) | > 100 µM (inactive) | > 100 µM (inactive) | > 100 µM (inactive)
5 | COc1ccc(OC)c(SC(CC(=O)c2ccccc2)c2ccccc2)c1 (stereo unspecified) | 17.9 µM (inactive) | 4.32 µM (inactive) | 17.7 µM (inactive) | 11 µM (inactive) |  | 19.5 µM (inactive) | 4.69 µM (inactive) | 20 µM (inactive) | 13.9 µM (inactive) | 37.1 µM (inactive) | 3.14 µM (inactive) | 20.9 µM (inactive) |  | 10.2 µM (inactive) | 0.877 µM (active) | 17.5 µM (inactive) | 13.8 µM (inactive) | 3.66 µM (inactive) | 15.2 µM (inactive) | 5.08 µM (inactive)
6 | COC(=O)C1=C(C)N2CCOC2(C)C(C(=O)OC)C1c1ccc[nH]1 (stereo unspecified) |  | > 100 µM (inactive) |  | > 100 µM (inactive) |  | > 100 µM (inactive) | > 100 µM (inactive) |  | > 100 µM (inactive) | > 100 µM (inactive) |  | > 100 µM (inactive) |  |  | > 100 µM (inactive) | > 100 µM (inactive) | > 100 µM (inactive) | > 100 µM (inactive) | > 100 µM (inactive) | > 100 µM (inactive)
7 | CN1CCN(c2cc(-c3cc4ccccc4o3)oc(=O)c2C#N)CC1 | 53.3 µM (inactive) | 98.4 µM (inactive) |  | 88.9 µM (inactive) | 63.8 µM (inactive) | 66.5 µM (inactive) |  |  | 36.1 µM (inactive) | 58.1 µM (inactive) |  |  | 48.3 µM (inactive) | > 100 µM (inactive) | 53 µM (inactive) | > 100 µM (inactive) | 72.8 µM (inactive) | 77.1 µM (inactive) | 45.8 µM (inactive) | 71.4 µM (inactive)
8 | Cc1cc(C)cc(Sc2c([N+](=O)[O-])ncn2C)c1 | 16.4 µM (inactive) | 6.03 µM (inactive) |  | 20.8 µM (inactive) | 20.9 µM (inactive) | 12.4 µM (inactive) | 13 µM (inactive) | 23.8 µM (inactive) | 25.9 µM (inactive) | 18.2 µM (inactive) |  | > 100 µM (inactive) | 11.5 µM (inactive) | 14.6 µM (inactive) | 5.79 µM (inactive) | 15.2 µM (inactive) | 13.8 µM (inactive) | 13.8 µM (inactive) | 27.7 µM (inactive) | 15.6 µM (inactive)
9 | COC(=S)OC1CC(n2cnc3c(N)ncnc32)OC1CO[Si](C)(C)C(C)(C)C (stereo unspecified) | 20.4 µM (inactive) |  | 22.4 µM (inactive) | 17.6 µM (inactive) | 22 µM (inactive) | 17.7 µM (inactive) | 15.3 µM (inactive) | 24 µM (inactive) | > 10 µM (inactive) | 20.3 µM (inactive) | 19.1 µM (inactive) | 16 µM (inactive) | 39.7 µM (inactive) | 14.3 µM (inactive) | 5.24 µM (inactive) | 28.8 µM (inactive) |  | 16 µM (inactive) |  | 10.1 µM (inactive)
10 | C=C1C(=O)O[C@H]2[C@H]1[C@@H](OC(=O)C=C(C)C)CC1=C[C@@H](C[C@@]3(C)O[C@@H]23)OC1=O | 4.54 µM (inactive) | 2.24 µM (inactive) | 2.17 µM (inactive) | 10.8 µM (inactive) | 7.33 µM (inactive) |  | 1.59 µM (inactive) | 20.9 µM (inactive) | 3.14 µM (inactive) |  |  | 27.9 µM (inactive) | 2.27 µM (inactive) | 16.3 µM (inactive) | 2.15 µM (inactive) |  | 5.55 µM (inactive) | 3.4 µM (inactive) | 4.23 µM (inactive) | 0.859 µM (active)
11 | Cc1ccc(S(=O)(=O)N(CC(=O)O)c2ccccc2)cc1 | > 100 µM (inactive) | > 100 µM (inactive) |  | > 100 µM (inactive) | > 100 µM (inactive) | > 100 µM (inactive) | > 100 µM (inactive) | > 100 µM (inactive) | > 100 µM (inactive) | > 100 µM (inactive) |  |  | > 100 µM (inactive) | > 100 µM (inactive) | > 100 µM (inactive) | > 100 µM (inactive) | > 100 µM (inactive) |  | > 100 µM (inactive) | > 100 µM (inactive)
12 | COc1cccc(C2C(C(=O)O)=C(CO)Oc3cc4c(cc32)OCO4)c1OC (stereo unspecified) | > 100 µM (inactive) | > 100 µM (inactive) |  | > 100 µM (inactive) | > 100 µM (inactive) | > 100 µM (inactive) | > 100 µM (inactive) | > 100 µM (inactive) | > 100 µM (inactive) | > 100 µM (inactive) |  |  | > 100 µM (inactive) | > 100 µM (inactive) | > 100 µM (inactive) | > 100 µM (inactive) | > 100 µM (inactive) |  | > 100 µM (inactive) | > 100 µM (inactive)
13 | CC1=C(C)[C@@]2(C)O[C@@]2(C)O[C@@]2(C)O[C@@]12C | > 100 µM (inactive) |  | > 100 µM (inactive) |  | > 100 µM (inactive) | > 100 µM (inactive) |  | > 100 µM (inactive) | > 100 µM (inactive) |  | > 100 µM (inactive) | > 100 µM (inactive) | > 100 µM (inactive) | > 100 µM (inactive) |  | > 100 µM (inactive) | > 100 µM (inactive) | > 100 µM (inactive) | > 100 µM (inactive) | 
14 | CN1c2ccccc2C(=O)NC12CCN(CCCC(=O)c1ccc(F)cc1)CC2 | > 100 µM (inactive) | 50.6 µM (inactive) | > 100 µM (inactive) | > 100 µM (inactive) |  | 16.3 µM (inactive) | 48.9 µM (inactive) | > 100 µM (inactive) | 82.4 µM (inactive) |  | 55 µM (inactive) | > 100 µM (inactive) |  | > 100 µM (inactive) | 21.1 µM (inactive) | 70.1 µM (inactive) | 26.1 µM (inactive) | 44.7 µM (inactive) | > 100 µM (inactive) | 84.7 µM (inactive)
15 | O=C1OC(c2ccccc2)=N/C1=C\c1ccc(Oc2ccc(Cl)c(Cl)c2)cc1 | 51.1 µM (inactive) | 24.2 µM (inactive) |  | > 100 µM (inactive) | > 100 µM (inactive) | > 100 µM (inactive) |  |  |  | 71.4 µM (inactive) |  | 88.3 µM (inactive) |  | 24.1 µM (inactive) | 20.7 µM (inactive) | > 10 µM (inactive) | 30.1 µM (inactive) | 33.2 µM (inactive) | 45.1 µM (inactive) | 23.1 µM (inactive)
16 | Cc1cc(S(=O)(=O)Nc2nc(Nc3ccccc3)n[nH]2)c(SSc2cc(Cl)c(C)cc2S(=O)(=O)Nc2nc(Nc3ccccc3)n[nH]2)cc1Cl | > 100 µM (inactive) | > 10 µM (inactive) | > 100 µM (inactive) | > 100 µM (inactive) |  | > 100 µM (inactive) | > 100 µM (inactive) | > 100 µM (inactive) | 90.4 µM (inactive) | > 100 µM (inactive) | > 10 µM (inactive) | > 100 µM (inactive) | > 100 µM (inactive) | 61.4 µM (inactive) | 35.7 µM (inactive) | > 100 µM (inactive) | > 100 µM (inactive) | > 100 µM (inactive) | > 100 µM (inactive) | 43.8 µM (inactive)
